Source: article PMC12072186, “A Novel Small Molecule Enhances Stable Dopamine Delivery to the Brain in Models of Parkinson’s Disease” (International Journal of Molecular Sciences, 2025)

Tests used:
[1] = tested on: tyrosine hydroxylase (TH+)-positive neurons; assay: Tyrosine hydroxylase immunohistochemistry (DAB staining); type: in vivo, mouse; settings: vs DMSO
Experimental: To further examine whether Pegasus has any effects on DA-producing neurons, we performed immunohistochemistry to visualize tyrosine hydroxylase (TH+)-positive neurons in both the SN and striatum in Pegasus-treated versus untreated mice. TH is a rate-limiting enzyme in the biosynthesis of DA in the brain. We used DAB staining to highlight the TH+ neurons.
(§1) Animals were deeply anesthetized with a mixture of Xylazine and Ketamine (8:80 mg/kg), washed with normal saline for 1 min, and then perfused with 4% paraformaldehyde (PFA) for 15 min. The brains were dissected out and immediately stored in 4% PFA for 24 h at 4 °C, and then transferred to 30% sucrose at 4 °C for 48 h. The brains were cut using a cryostat microtome into 20 µm thick coronal sections and stored at −20 °C. Staining for tyrosine hydroxylase (TH) was probed with anti-tyrosine hydroxylase antibody (Cat No: AB152, Sigma-Aldrich, St. Louis, MO, USA). GFAP (glial fibrillary acidic protein) was stained with anti-GFAP monoclonal antibody (Cat No:MS1376P1, Fisher Scientific, Newington, NH, USA). […] TH^+ cells were counted in a stereology-like manner across multiple visual fields (typically 20 fields) in a single animal, and the same procedure was repeated on several animals to obtain the best approximation of TH staining.

[2] = In vivo metabolism, metabolite profiling in rat brain and plasma (LC-MS/MS)
Experimental: In vivo metabolism: We performed a metabolism study (Figure 2) in male Sprague Dawley rats (6–8 weeks old) after a single i.p. injection of 50 mg/kg Pegasus. Plasma and brain samples were serially collected and assessed for the presence of possible phase-I and phase-II metabolites. […] The relative abundance of Pegasus and its metabolites in the brain and plasma was determined at the ionization parameters of the parent.
Metabolite profiling was performed in rat brain and plasma samples to detect phase-I and phase-II metabolites in male Sprague Dawley rats (6–8 weeks old, n = 6) injected (i.p.) with 50 mg/kg Pegasus. The formulation vehicle of Pegasus was 5% DMSO + 35% polyethylene glycol (PEG) 400 + 60% normal saline, and this formulation was used to measure the plasma and brain concentrations of Pegasus and all other metabolites. All samples obtained after Pegasus dosing in rats by the i.p. route of administration were used for metabolite profiling and compared to normal saline. Blood (n = 16 samples) was collected via retro-orbital plexus puncture 0.25, 1, 4, 6, 8, and 24 h pre-dose, and brain sampling was 1, 4, and 24 h post-dose (n = 6 per group). The brain samples were cleaned and perfused, then washed with PBS. The brains (approximately 1.5 g) were transferred to a 50 mL centrifuge tube and 36 mL of ice-cold PBS was added. The mixture was homogenized for about 1–2 min to obtain a uniform suspension. The precipitate was allowed to settle for 30 min at 4 °C, and 15 mL of the middle layer was collected. The plasma and brain samples were processed by the protein precipitation method. In total, 175 μL of acetonitrile was added to 25 μL of plasma samples. The samples were mixed, followed by centrifugation at 4000 rpm for 20 min. The supernatant from the samples was subjected to LC-MS/MS analysis.
The samples were analyzed by liquid chromatography tandem mass spectrometry (HPLC: LC series, Shimadzu, Chiyoda-ku, Tokyo, Japan; mass spectrometer: API4000 Triple Quad mass spectrometer, Applied Biosystems, Carlsbad, CA, USA). The samples (n = 6) were processed using protein precipitation and 1 mM stock solution, prepared in DMSO, spiked into acetonitrile to a final concentration of 4 µM, and processed using liquid chromatography tandem mass spectrometry, employing a linear gradient method using MH+/MH−(Q1) and product ion (MS/MS) scans. The evaluation of the Pegasus metabolites included demethylation, de-hydroxylation, amide cleavage, oxidation, de-hydrogenation, glucuronidation, sulfation, glutathione conjugation, and several other possibilities. The relative abundance of Pegasus and its metabolites in the brain and plasma was determined at the ionization parameters of the parent.

[3] = tested on: MPTP-treated C57BL/6 mice; assay: Rotarod test in MPTP-treated mice; type: in vivo, mouse; settings: MPTP 25 mg/kg i.p. day 1–5; treatment day 1–13; vs MPTP vehicle control
Experimental: MPTP was injected to male C57BL/6 mice for 5 consecutive days (Figure 4A) to destroy DA neurons, and then the mice were treated with Pegasus alone or Pegasus + Benserazide compared to L-dopa alone or L-Dopa + Benserazide.
From day 1 to day 5, MPTP was administered to all the groups except Naive at a dose of 25 mg/kg, i.p., QD. Treatment with Pegasus alone (50 mg/kg, i.p., BID), a combination of Pegasus 50 mg/kg, BID + Benserazide 10 mg/kg, QD, or a combination of L-Dopa 10 mg/kg, QD + Benserazide 10 mg/kg, QD or standalone L-Dopa 10 mg/kg, QD, started on day 1 and continued until day 13. On day 13, after the first dose of Pegasus, 4 animals/time point from each group were sacrificed at 0.5, 1, 3, 6, and 12 h, and the blood and brains were collected.
The mice were placed on an accelerating Rotarod (Columbus Instruments, Columbus, OH, USA) equipped with individual timers for each mouse. […] The mice were trained for 3 consecutive days before the final measurement.

astrocyte (GFAP) = assay: GFAP immunohistochemistry of astrocytes; type: in vivo, mouse
Experimental: (§2) Neuroinflammation is one of the most important pathogeneses in PD in addition to alpha-synuclein aggregation. To examine the effects of Pegasus on glial cell activation, we performed immunohistochemistry of astrocyte and microglia from the brains of treated vs. untreated young (6–7-month-old) and old (12–13-month-old) TgA53T mice.
as §1

alpha-synuclein = tested on: alpha-synuclein; design: method as in PMID 38991155; settings: cited from earlier work
microglia (IBA1) = assay: IBA1 immunohistochemistry of microglia; type: in vivo, mouse; settings: young and old TgA53T mice, vs DMSO
From the text: as §2

[4] = Plasma binding by equilibrium dialysis; type: in vitro ADME; settings: mouse, rat, dog, and human plasma
From the text: Many of the metabolites were formed after the amide cleavage of the parent, Pegasus, into the tetracycline or the DA scaffold and further biotransformation of those scaffolds. […] Both M8 and M11 are abundantly detected in the brain and the blood in rats and the relative abundance of brain–plasma is 318 and 131%, respectively. […] Furthermore, Pegasus is […] bound to mouse, rat, dog, and human plasma (Avg. 91–98%) using the equilibrium dialysis method.

[5] = 50 mg/kg Pegasus i.p., Sprague Dawley rats

## C[C@H]1c2ccc(NC(=O)CCC(=O)NCCc3ccc(O)c(O)c3)c(O)c2C(=O)C2=C(O)[C@]3(O)C(=O)C(C(N)=O)=C(O)CC3[C@@H](O)C21 (some centres unmarked) [Pegasus]
[1]; young (6–7-month-old) and old (12–13-month-old) TgA53T mice
  Cell count of TH+ neurons in the SN: dramatically increases the cell count
[1]; young and old TgA53T mice
  DA nerve terminals (TH+) in the striatum: dramatically increases
[2]; [5]
  Observed in Rat Brain: not detected
  Observed in Rat Plasma: very small
[2]; male, Sprague Dawley, intraperitoneal, 50 mg/kg, relative abundance brain vs plasma, rat
  Kp: 0
[3]
  Latency to fall (Rotarod): significantly increased latency to fall
Astrocyte (GFAP); including the SN and cortex
  GFAP staining in other brain regions: not appreciably different
Astrocyte (GFAP); young (6–7-month-old) TgA53T mice, 50 mg/kg i.p., vs DMSO
  GFAP astrocyte reactivity in the hippocampus: significant reduction in astrocyte reactivity
alpha-synuclein
  Protective effect on alpha-synuclein in vitro: prevention of alpha-synuclein misfolding
Microglia (IBA1)
  IBA1 staining in the hippocampus: No differences in IBA1 staining
[4]
  Plasma binding (Avg.): 91–98%
